Measurements: ChEMBL document CHEMBL1201862, “PubChem BioAssay data set” (2004)
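In this assay, cells in 96-well plates receive the compound at five concentrations for 48 hours. Endpoints are linearly interpolated between the surrounding concentrations. Here, GI50 denotes the concentration required for 50% inhibition of growth.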 Calls of active or inactive are those of the source. Rule as the data show it: active = GI50 up to about 1.1 µM and inactive = higher.

Columns and labels:
Test in all cases: DTP human tumour cell line panel, 48 h
[1] = system: CCRF-CEM
[2] = system: A498
[3] = system: HCC 2998
[4] = system: UACC-257
[5] = system: ACHN
[6] = system: MDA-N
[7] = system: SF-295
[8] = system: HOP-92
[9] = system: CAKI-1
[10] = system: 786-0
[11] = system: SF-268
[12] = system: PC-3
[13] = system: IGROV-1
[14] = system: SR
[15] = system: M14
[16] = system: RPMI-8226
[17] = system: NCI-H522
[18] = system: LOX IMVI
[19] = system: BT-549
[20] = system: Malme-3M
[21] = system: Hs-578T
[22] = system: SNB-75
[23] = system: MOLT-4
[24] = system: SF-539
[25] = system: SK-MEL-2
[26] = system: U-251
[27] = system: HT-29
[28] = system: EKVX
[29] = system: TK-10
[30] = system: HCT-15
[31] = system: UO-31
[32] = system: DU-145
[33] = system: NCI-H460
[34] = system: KM12
[35] = system: NCI-H23
[36] = system: MDA-MB-231
[37] = system: OVCAR-4
[38] = system: NCI/ADR-RES
[39] = system: A549
[40] = system: SK-MEL-28
[41] = system: UACC-62
[42] = system: SW-620
[43] = system: OVCAR-3
[44] = system: HCT-116
[45] = system: K562
[46] = system: HL-60
[47] = system: OVCAR-5
[48] = system: SK-OV-3
[49] = system: SK-MEL-5
[50] = system: MDA-MB-435
[51] = system: SN12C
[52] = system: RXF 393
[53] = system: T47D
[54] = system: SNB-19
[55] = system: COLO 205
[56] = system: NCI-H226
[57] = system: OVCAR-8
[58] = system: MCF7
[59] = system: HOP-62

Compound: O=C(O)C(CSC(c1ccccc1)(c1ccccc1)c1ccccc1)/N=C/c1cccs1 (stereo not drawn)
- GI50 [1]: 1.87 µM (inactive)
- GI50 [2]: 30.3 µM (inactive)
- GI50 [3]: 2.06 µM (inactive)
- GI50 [4]: 4.13 µM (inactive)
- GI50 [5]: 12.8 µM (inactive)
- GI50 [6]: 0.357 µM (active)
- GI50 [7]: 1.26 µM (inactive)
- GI50 [8]: 14.6 µM (inactive)
- GI50 [9]: 7.46 µM (inactive)
- GI50 [10]: 1.17 µM (inactive)
- GI50 [11]: 2.42 µM (inactive)
- GI50 [12]: 1.89 µM (inactive)
- GI50 [13]: 1.95 µM (inactive)
- GI50 [14]: 4.42 µM (inactive)
- GI50 [15]: 0.378 µM (active)
- GI50 [16]: 2.45 µM (inactive)
- GI50 [17]: 1.16 µM (inactive)
- GI50 [18]: 4.34 µM (inactive)
- GI50 [19]: 4.97 µM (inactive)
- GI50 [20]: 3.6 µM (inactive)
- GI50 [21]: 3.2 µM (inactive)
- GI50 [22]: 5.48 µM (inactive)
- GI50 [23]: 4.19 µM (inactive)
- GI50 [24]: 1.27 µM (inactive)
- GI50 [25]: 2.06 µM (inactive)
- GI50 [26]: 2 µM (inactive)
- GI50 [27]: 2.96 µM (inactive)
- GI50 [28]: 5.42 µM (inactive)
- GI50 [29]: 10.8 µM (inactive)
- GI50 [30]: 4.24 µM
- GI50 [31]: 17.7 µM (inactive)
- GI50 [32]: 3.85 µM (inactive)
- GI50 [33]: 3.16 µM (inactive)
- GI50 [34]: 2.78 µM (inactive)
- GI50 [35]: 4.94 µM (inactive)
- GI50 [36]: 1.57 µM (inactive)
- GI50 [37]: 15.1 µM (inactive)
- GI50 [38]: 14 µM (inactive)
- GI50 [39]: 3.95 µM (inactive)
- GI50 [40]: 7.48 µM (inactive)
- GI50 [41]: 1.17 µM (inactive)
- GI50 [42]: 1.76 µM (inactive)
- GI50 [43]: 2.31 µM (inactive)
- GI50 [44]: 0.468 µM (active)
- GI50 [45]: 3.54 µM (inactive)
- GI50 [46]: 2.54 µM (inactive)
- GI50 [47]: 5.45 µM (inactive)
- GI50 [48]: 0.968 µM (active)
- GI50 [49]: 0.484 µM (active)
- GI50 [50]: 0.324 µM (active)
- GI50 [51]: 3.27 µM (inactive)
- GI50 [52]: 2.07 µM (inactive)
- GI50 [53]: 3.37 µM (inactive)
- GI50 [54]: 2.42 µM (inactive)
- GI50 [55]: 1.69 µM (inactive)
- GI50 [56]: 9.12 µM (inactive)
- GI50 [57]: 2.55 µM (inactive)
- GI50 [58]: 0.853 µM (active)
- GI50 [59]: 5.62 µM (inactive)

Compound: CN1C[C@@H]2CCCN2P1Oc1cccc2cccnc12 (stereo partly drawn)
- GI50 [1]: 2.41 µM (inactive)
- GI50 [2]: > 100 µM (inactive)
- GI50 [3]: 47.3 µM (inactive)
- GI50 [4]: 29.4 µM (inactive)
- GI50 [5]: 49 µM (inactive)
- GI50 [6]: 55.2 µM (inactive)
- GI50 [7]: 85.7 µM (inactive)
- GI50 [8]: > 100 µM (inactive)
- GI50 [9]: 35.3 µM (inactive)
- GI50 [10]: > 100 µM (inactive)
- GI50 [11]: 16 µM (inactive)
- GI50 [12]: 27.5 µM (inactive)
- GI50 [13]: 32.9 µM (inactive)
- GI50 [14]: 25.7 µM (inactive)
- GI50 [15]: 33.7 µM (inactive)
- GI50 [16]: 13.2 µM (inactive)
- GI50 [17]: 18.1 µM (inactive)
- GI50 [18]: 97.5 µM (inactive)
- GI50 [19]: > 100 µM (inactive)
- GI50 [20]: 25.8 µM (inactive)
- GI50 [21]: 17.5 µM (inactive)
- GI50 [22]: > 100 µM (inactive)
- GI50 [23]: 6.76 µM (inactive)
- GI50 [24]: 44.9 µM (inactive)
- GI50 [25]: 50.7 µM (inactive)
- GI50 [26]: 35.2 µM (inactive)
- GI50 [27]: 33 µM (inactive)
- GI50 [28]: 29 µM (inactive)
- GI50 [29]: 75.7 µM (inactive)
- GI50 [30]: 16.6 µM
- GI50 [31]: 34.9 µM (inactive)
- GI50 [32]: 83.4 µM (inactive)
- GI50 [33]: 35.4 µM (inactive)
- GI50 [34]: 40.2 µM (inactive)
- GI50 [35]: 17.9 µM (inactive)
- GI50 [36]: 42.6 µM (inactive)
- GI50 [37]: 32.8 µM (inactive)
- GI50 [38]: 19.8 µM (inactive)
- GI50 [39]: 44.5 µM (inactive)
- GI50 [40]: 73.1 µM (inactive)
- GI50 [41]: 39.3 µM (inactive)
- GI50 [42]: 18.7 µM (inactive)
- GI50 [43]: 23.4 µM (inactive)
- GI50 [44]: 8.69 µM (inactive)
- GI50 [45]: 9.42 µM (inactive)
- GI50 [46]: 16.1 µM (inactive)
- GI50 [47]: 32.6 µM (inactive)
- GI50 [48]: > 100 µM (inactive)
- GI50 [49]: 41.5 µM (inactive)
- GI50 [50]: 45.6 µM (inactive)
- GI50 [51]: 22.9 µM (inactive)
- GI50 [52]: > 100 µM (inactive)
- GI50 [53]: 9.77 µM (inactive)
- GI50 [54]: > 100 µM (inactive)
- GI50 [55]: 30.5 µM (inactive)
- GI50 [56]: 80.9 µM (inactive)
- GI50 [57]: 42.6 µM (inactive)
- GI50 [58]: 12 µM (inactive)
- GI50 [59]: 52.1 µM (inactive)
